Data on 2 molecules can be found in patent US20030153030A1, “Enzyme-catalyzed modification of substances in biological mixtures” (priority 1999, published 2003).

One assay has as its system MSCP5 cells. The assay is described as follows: Prostaglandin synthesis/release in 14C-arachidonic acid-marked skin keratinocytes. It is filed as cell-based, Murine. Conditions: NS398 10 μM, positive control, 2 hours incubation. The method, then:
FIG. 1 is a schematic illustration of the effects of salicin and salicin esters on the release of prostaglandin in keratinocytes. The average value of three measuring points is shown. In FIG. 1, 1=negative control, 2=salicin, 3=phenyl propionyl salicin, 4=p-OH-phenyl acetyl salicin and 5=positive control.
Murine (MSCP5) and human (HPKII) skin keratinocytes were marked for 16 hours with 0.2 μCi ^14C-arachidonic acid/ml medium. Salicin, phenylpropionyl salicin and p-OH-phenylacetyl salicin in fresh medium were added in increasing concentrations as test substances and incubated for 2 hours. In the positive control NS398 (10 μM) for MSCP5 cells, prostaglandin synthesis is reduced by 85%. The prostaglandins were identified by comparison with reference substances and quantified by radiodensitometry. MSCP5: 100%=201 cpm; HPKII: 100%=63 cpm.

Assay [1] is described as follows: Activity of salicin derivative as opposed to salicin. Particulars: modified versus unmodified salicin.

Turning to `CS(=O)(=O)Nc1ccc([N+](=O)[O-])cc1OC1CCCCC1` [NS398], the “prostaglandin synthesis is reduced by” value in the assay with MSCP5 cells was determined as 85%.

For the molecule `O=C(Cc1ccc(O)cc1)OCC1OC(Oc2ccccc2CO)C(O)C(O)C1O` (centres unmarked) [p-OH-phenyl acetoyl salicin, p-OH-phenylacetyl salicin], the “improvement of activity as opposed to salicin” value in assay [1] was “improvements are also shown”.
